Each structure is given as a SMILES string. Calls of active or inactive are those of the source. No cut-off for these calls is given here.

In assay [1] the test system is Saccharomyces cerevisiae. Description: Inhibition of yeast alpha-glucosidase at 50 uM using p-nitrophenyl-alpha-D-glucopyranoside as substrate preincubated for 30 mins followed by substrate addition and measured after 30 mins by microplate reader analysis.
The next assay concerns RAW264.7. Description: Antiinflammatory activity against mouse RAW264.7 cells assessed as inhibition of LPS-induced nitric oxide production measured after 24 hrs. The format is functional, cell-based. The note with it: RAW264.7, 24 h.
A short description of assay [2]: Inhibition of yeast alpha-glucosidase using p-nitrophenyl-alpha-D-glucopyranoside as substrate preincubated for 30 mins followed by substrate addition and measured after 30 mins by microplate reader analysis. The arrangement: species or system Saccharomyces cerevisiae.
Assay [3] can be described thus: Mixed-type inhibition of yeast alpha-glucosidase assessed as inhibition constant using p-NPG as substrate measured up to 180 mins by Lineweaver-Burk plot analysis. The arrangement: species or system Saccharomyces cerevisiae.
Assay [4] deals with Saccharomyces cerevisiae. Description: Mixed-type inhibition of yeast alpha-glucosidase assessed as reduction in Vmax up to 20 uM using p-NPG as substrate measured up to 180 mins by Lineweaver-Burk plot analysis.
Assay [5] relates to Saccharomyces cerevisiae. Description: Mixed-type inhibition of yeast alpha-glucosidase assessed as reduction in Km up to 20 uM using p-NPG as substrate measured up to 180 mins by Lineweaver-Burk plot analysis.

The term inhibition denotes how much of the control response was suppressed. The IC50 is the point on the concentration scale where inhibition reaches its midpoint. Take `CC1(C)CCC[C@]2(C)CC3=C(C[C@@H]12)C(=O)CC3`: the inhibition in the assay with Saccharomyces cerevisiae [1] came to 12.4%. In addition, the results for the IC50 (with RAW264.7; in assay [2]) were 43.1 µM and over 50 µM, respectively.
The matching figures for `C=C1CC[C@H]2C(C)(C)CCC[C@]2(C)[C@H]1C/C=C1\CCOC1=O`: 89.1%, 30.8 µM and 17.1 µM.
In the same order, the values of `C=C1CC[C@H]2C(C)(C)CCC[C@]2(C)[C@H]1C/C=C1\CC(=O)OC1=O` are 90.3%, 11 µM and 21.1 µM.
The compound `C=C1CC[C@H]2C(C)(C)CCC[C@]2(C)[C@H]1C/C=C1\CC(OCC)OC1=O` (some centres undefined) returned an inhibition in the assay on Saccharomyces cerevisiae [1] of 89.3%. The figures for the IC50 (in the assay on RAW264.7; in assay [2]) were 31.2 µM and 13.8 µM, respectively.
What is called Ki is the equilibrium dissociation constant of an inhibitor or competing ligand from its target. Regarding `C=C1CC[C@H]2C(C)(C)CCC[C@]2(C)[C@H]1/C=C/C1=CC(=O)O[C@H]1O`, the inhibition constant Ki in assay [3] came out at 9.5 µM. For the same compound, the inhibition entry in the assay on Saccharomyces cerevisiae [4] and in the assay on Saccharomyces cerevisiae [5] was “Active” throughout. Moreover, the inhibition in the assay with Saccharomyces cerevisiae [1] came out at 95.7%. For the same compound, the IC50 in the assay on RAW264.7 came to 2.4 µM; in assay [2] it was 10 µM.
Regarding `CNC(=N)NCCC[C@H](N)C(=O)O` [TILARGININE], the IC50 in the assay on RAW264.7 stood at 27.2 µM.
As for `C=C1CC[C@H]2C(C)(C)CCC[C@]2(C)[C@H]1C/C=C(\CC(=O)OCC)C(=O)O`, in the assay with Saccharomyces cerevisiae [1], the inhibition stood at 38.7%. The 50% inhibitory concentration (IC50) (in the assay on RAW264.7; in assay [2]) was over 50 µM throughout.
Take `C=C1CC[C@H]2C(C)(C)CCC[C@]2(C)[C@H]1C/C=C(/C=O)CCO`: the inhibition with Saccharomyces cerevisiae [1] came to 36.9%. For the same compound, the half-inhibitory concentration (IC50) (with RAW264.7; in assay [2]) was over 50 µM each time.
`C=C1CC[C@H]2C(C)(C)CCC[C@]2(C)[C@H]1CCC1=CC(O)OC1=O` (some centres undefined) [CORONARIN C] returned an inhibition in the assay on Saccharomyces cerevisiae [1] of 87.4%. Also, the values for the IC50 (in the assay on RAW264.7; in assay [2]) were 25.8 µM and 17.5 µM, respectively.
Turning to `O=c1c(-c2ccc(O)cc2)coc2cc(O)cc(O)c12` [GENISTEIN], in the assay with Saccharomyces cerevisiae [1], the inhibition is 70%. In assay [2], this compound came in with a concentration for half-maximal inhibition (IC50) of 17.6 µM.
For the compound `C=C1CC[C@H]2C(C)(C)CCC[C@]2(C)[C@H]1C/C=C(/C=O)CO`, the inhibition with Saccharomyces cerevisiae [1] came to 27.1%. The values for the half-maximal inhibitory concentration (IC50) (with RAW264.7; in assay [2]) were 28.7 µM and over 50 µM, respectively.
In the same order, the values of `C=C1CC[C@H]2C(C)(C)CCC[C@]2(C)[C@H]1/C=C/C(=O)O` are 33.2%, 23.7 µM and over 50 µM.
The matching figures for `C=C1CC[C@H]2C(C)(C)CCC[C@]2(C)[C@H]1CCC1=CC(=O)OC1`: 89%, 18.8 µM and 14.8 µM.
The matching figures for `C=C1CC[C@H]2C(C)(C)CCC[C@]2(C)[C@H]1C/C=C1\CC(OC)OC1=O` (some centres undefined): 87.8%, 24.6 µM and 15.8 µM.
Consider `OC[C@H]1NC[C@H](O)[C@@H](O)[C@@H]1O` [DUVOGLUSTAT], for which the inhibition in the assay on Saccharomyces cerevisiae [1] was 36.8%. Moreover, the half-inhibitory concentration (IC50) in assay [2] worked out at 115 µM.

Values taken from ChEMBL document CHEMBL4334519, “Anti-inflammatory and α-Glucosidase Inhibitory Activities of Labdane and Norlabdane Diterpenoids from the Rhizomes of Amomum villosum” (J Nat Prod, 2019).
